Data as given in patent US20060166953A1, “Ciclesonide-containing sterile aqueous suspension” (priority 2002, published 2006).

Experiment: Chemical stability of drug in the aqueous suspension against autoclaving (recovery rate by HPLC)
Type: physicochemical
Procedure: Comparison of Chemical Stability of Drug in the Aqueous Suspension Against Autoclaving
The suspension of Example 1 was put into a 500 mL glass container with a screw cap and sterilized by autoclaving at 121 degrees C. for 20 minutes. Subsequently, after mixing the suspension in the glass container, the ciclesonide concentration was quantified by HPLC.
The recovery rate of ciclesonide after the autoclaving was calculated by taking the ciclesonide concentration before the autoclaving to be 100%. The recovery rates of budesonide and beclomethasone dipropionate after the autoclaving were calculated by the same method.

CCCC1O[C@@H]2C[C@H]3[C@@H]4CCC5=CC(=O)C=C[C@]5(C)[C@H]4[C@@H](O)C[C@]3(C)[C@]2(C(=O)CO)O1 (stereo partly drawn) [budesonide, 16α,17-[(1RS)-butylidene-bis(oxy)]-11β,21-dihydroxypregna-1,4-diene-3,20-dione]
Degradation by autoclaving procedure: degraded

CC(C)C(=O)OCC(=O)[C@@]12O[C@H](C3CCCCC3)O[C@@H]1C[C@H]1[C@@H]3CCC4=CC(=O)C=C[C@]4(C)[C@H]3[C@@H](O)C[C@@]12C [ciclesonide, (11β,16α)-16,17-[cyclohexylmethylenebis(oxy)]-11-hydroxy-21-(2-methyl-1-oxopropoxy)pregna-1,4,-diene-3,20-dione]
Degradation by autoclaving procedure: not degraded
